Data published in US20220323406A1, “METHODS AND COMPOSITIONS FOR DIFFERENTIATING STEM CELLS” (Massachusetts Institute of Technology, priority 2019, published 2022).
Counter-ions that a name gives are not always drawn.

Legend:
[1] = test system: ENR+CD organoids (ISC to Paneth cell differentiation); experiment: Primary screen: CCh-stimulated lysozyme secretion LYZ.S, 2.5-D 384-well ENR+CD organoid differentiation; assay type: cell-based, mouse; conditions: primary screen
From the text: (§1) High-throughput screening.

ENR+CD organoids = experiment: Primary screen: ATP (CellTiter-Glo 3D, CTG) cell number/viability, 2.5-D 384-well ENR+CD organoids;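 note: compounds given at plating and again on day 3 over a 6-day differentiation from ENR+CV stem-cell-enriched precursors, ATP measured on day 6, plate median as control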
[2] = test system: ENR+CD organoids (ISC to Paneth cell differentiation); experiment: Primary screen: basal (non-stimulated) lysozyme secretion LYZ.NS, 2.5-D 384-well ENR+CD organoid differentiation; assay type: cell-based, mouse
From the text: as §1

[3] = dose 0.08 uM, FC relative to plate median
[4] = dose 0.40 uM, FC relative to plate median
[5] = dose 2.00 uM, FC relative to plate median
[6] = dose 10.00 uM, FC relative to plate median
[7] = primary screen, dose 0.08 uM, FC relative to plate median
[8] = primary screen, dose 0.08 uM, standard z score
[9] = primary screen, dose 0.40 uM, FC relative to plate median
[10] = primary screen, dose 0.40 uM, standard z score
[11] = primary screen, dose 2.00 uM, FC relative to plate median
[12] = primary screen, dose 2.00 uM, standard z score
[13] = primary screen, dose 10.00 uM, FC relative to plate median
[14] = primary screen, dose 10.00 uM, standard z score
[15] = primary screen, standard z score, dose 0.08 uM
[16] = primary screen, standard z score, dose 0.40 uM
[17] = primary screen, standard z score, dose 2.00 uM
[18] = primary screen, standard z score, dose 10.00 uM

Compound	Dose.FC.LYZ.S ([1]; dose 0.08 uM)	Dose.FC.LYZ.S ([1]; dose 0.40 uM)	Dose.FC.LYZ.S ([1]; dose 2.00 uM)	Dose.FC.LYZ.S ([1]; dose 10.00 uM)	Dose.FC.CTG (ENR+CD organoids; primary screen, dose 0.08 uM)	Dose.FC.CTG (ENR+CD organoids; primary screen, dose 0.40 uM)	Dose.FC.CTG (ENR+CD organoids; primary screen, dose 2.00 uM)	Dose.FC.CTG (ENR+CD organoids; primary screen, dose 10.00 uM)	Dose.FC.LYZ.NS ([2]; primary screen, dose 0.08 uM)	Dose.FC.LYZ.NS ([2]; primary screen, dose 0.40 uM)	Dose.FC.LYZ.NS ([2]; primary screen, dose 2.00 uM)	Dose.FC.LYZ.NS ([2]; primary screen, dose 10.00 uM)	Z.CTG (standard z score) (ENR+CD organoids; primary screen, dose 0.08 uM)	Z.CTG (standard z score) (ENR+CD organoids; primary screen, dose 0.40 uM)	Z.CTG (standard z score) (ENR+CD organoids; primary screen, dose 2.00 uM)	Z.CTG (standard z score) (ENR+CD organoids; primary screen, dose 10.00 uM)	Z.LYZ.NS (standard z score) ([2]; primary screen, dose 0.08 uM)	Z.LYZ.NS (standard z score) ([2]; primary screen, dose 0.40 uM)	Z.LYZ.NS (standard z score) ([2]; primary screen, dose 2.00 uM)	Z.LYZ.NS (standard z score) ([2]; primary screen, dose 10.00 uM)	other results
Cc1cn([C@H]2C=C[C@@H](CO)O2)c(=O)[nH]c1=O [Stavudine (d4T)]																					Dose.FC.LYZ.S [1, 3]: 0.134 log2 fold change; Dose.FC.LYZ.S [1, 4]: 0.001 log2 fold change; Dose.FC.LYZ.S [1, 5]: −0.003 log2 fold change; Dose.FC.LYZ.S [1, 6]: −0.120 log2 fold change; Dose.FC.CTG (ENR+CD organoids; [7]): 0.095 log2 fold change; Z.CTG (ENR+CD organoids; [8]): 0.226; Dose.FC.CTG (ENR+CD organoids; [9]): 0.147 log2 fold change; Z.CTG (ENR+CD organoids; [10]): 0.351; Dose.FC.CTG (ENR+CD organoids; [11]): 0.075 log2 fold change; Z.CTG (ENR+CD organoids; [12]): 0.179; Dose.FC.CTG (ENR+CD organoids; [13]): −0.075 log2 fold change; Z.CTG (ENR+CD organoids; [14]): −0.179; Dose.FC.LYZ.NS [2, 7]: 0.071 log2 fold change; Z.LYZ.NS [2, 8]: 0.620; Dose.FC.LYZ.NS [2, 9]: 0.003 log2 fold change; Z.LYZ.NS [2, 10]: 0.027; Dose.FC.LYZ.NS [2, 11]: 0.009 log2 fold change; Z.LYZ.NS [2, 12]: 0.074; Dose.FC.LYZ.NS [2, 13]: −0.095 log2 fold change; Z.LYZ.NS [2, 14]: −0.828
C=CC(=O)Nc1cccc(Nc2nc(Nc3ccc(Oc4ccnc(C(=O)NC)c4)cc3)ncc2F)c1 [CNX-774]	0.014 log2 fold change	−0.027 log2 fold change	0.082 log2 fold change	−0.089 log2 fold change	0.259 log2 fold change	0.177 log2 fold change	−0.109 log2 fold change	−0.081 log2 fold change	0.075 log2 fold change	−0.008 log2 fold change	0.158 log2 fold change	−0.043 log2 fold change									Z.CTG (ENR+CD organoids; [15]): 0.619; Z.CTG (ENR+CD organoids; [16]): 0.422; Z.CTG (ENR+CD organoids; [17]): −0.260; Z.CTG (ENR+CD organoids; [18]): −0.194; Z.LYZ.NS [2, 15]: 0.655; Z.LYZ.NS [2, 16]: −0.067; Z.LYZ.NS [2, 17]: 1.378; Z.LYZ.NS [2, 18]: −0.376
O=C(NC(NC(=S)Nc1ccc(F)c([N+](=O)[O-])c1)C(Cl)(Cl)Cl)C(c1ccccc1)c1ccccc1 (centres unmarked) [CGK733]	0.008 log2 fold change	−0.018 log2 fold change	−0.125 log2 fold change	−0.230 log2 fold change	−0.362 log2 fold change	−0.093 log2 fold change	−0.244 log2 fold change	−0.478 log2 fold change	0.099 log2 fold change	−0.026 log2 fold change	−0.099 log2 fold change	−0.122 log2 fold change									Z.CTG (ENR+CD organoids; [15]): −0.864; Z.CTG (ENR+CD organoids; [16]): −0.221; Z.CTG (ENR+CD organoids; [17]): −0.582; Z.CTG (ENR+CD organoids; [18]): −1.143; Z.LYZ.NS [2, 15]: 0.863; Z.LYZ.NS [2, 16]: −0.222; Z.LYZ.NS [2, 17]: −0.865; Z.LYZ.NS [2, 18]: −1.063
Ifenprodil Tartrate													0.243	0.265	−0.008	−2.471	0.492	−0.161	1.068	−1.909	Dose.FC.LYZ.S (log2 fold change) ([1]; dose 0.08 uM): 0.050; Dose.FC.LYZ.S (log2 fold change) ([1]; dose 0.40 uM): 0.017; Dose.FC.LYZ.S (log2 fold change) ([1]; dose 2.00 uM): −0.023; Dose.FC.LYZ.S (log2 fold change) ([1]; dose 10.00 uM): −0.301; Dose.FC.CTG (log2 fold change) (ENR+CD organoids; primary screen, dose 0.08 uM): 0.102; Dose.FC.CTG (log2 fold change) (ENR+CD organoids; primary screen, dose 0.40 uM): 0.111; Dose.FC.CTG (log2 fold change) (ENR+CD organoids; primary screen, dose 2.00 uM): −0.003; Dose.FC.CTG (log2 fold change) (ENR+CD organoids; primary screen, dose 10.00 uM): −1.034; Dose.FC.LYZ.NS (log2 fold change) ([2]; primary screen, dose 0.08 uM): 0.056; Dose.FC.LYZ.NS (log2 fold change) ([2]; primary screen, dose 0.40 uM): −0.019; Dose.FC.LYZ.NS (log2 fold change) ([2]; primary screen, dose 2.00 uM): 0.123; Dose.FC.LYZ.NS (log2 fold change) ([2]; primary screen, dose 10.00 uM): −0.219
Nc1cccc(-c2cc3c(Oc4cccc(O)c4)ncnc3[nH]2)c1 [TWS119]	0.207 log2 fold change	0.142 log2 fold change	0.044 log2 fold change	−0.283 log2 fold change	0.328 log2 fold change	0.333 log2 fold change	0.071 log2 fold change	−1.200 log2 fold change	0.094 log2 fold change	0.038 log2 fold change	0.035 log2 fold change	−0.233 log2 fold change	0.784	0.796	0.169	−2.866	0.820	0.327	0.304	−2.027	
O=c1ncccn1[C@@H]1O[C@H](CO)[C@@H](O)[C@H]1O [Zebularine]	0.092 log2 fold change	0.077 log2 fold change	0.051 log2 fold change	0.102 log2 fold change	0.035 log2 fold change	0.000 log2 fold change	−0.089 log2 fold change	−0.167 log2 fold change	0.026 log2 fold change	0.009 log2 fold change	0.095 log2 fold change	0.086 log2 fold change					0.223	0.075	0.828	0.749	
COc1cc(OC2CCN(C)CC2)ccc1Nc1ncc2c(n1)n(C1CCCC1)c(=O)n2C [AZ 3146]	0.049 log2 fold change	−0.067 log2 fold change	−0.130 log2 fold change	−0.422 log2 fold change	−0.130 log2 fold change	−0.262 log2 fold change	−0.369 log2 fold change	−1.168 log2 fold change	0.073 log2 fold change	−0.038 log2 fold change	−0.079 log2 fold change	−0.281 log2 fold change	−0.310	−0.626	−0.881	−2.789	0.639	−0.327	−0.687	−2.447	
CC(=O)OCC(=O)NCCCOc1cccc(CN2CCCCC2)c1 [Roxatidine Acetate HCl]																					Dose.FC.LYZ.S [1, 3]: 0.035 log2 fold change; Dose.FC.LYZ.S [1, 4]: 0.099 log2 fold change; Dose.FC.LYZ.S [1, 5]: −0.053 log2 fold change; Dose.FC.LYZ.S [1, 6]: −0.104 log2 fold change; Dose.FC.CTG (ENR+CD organoids; [7]): −0.040 log2 fold change; Dose.FC.CTG (ENR+CD organoids; [9]): 0.021 log2 fold change; Dose.FC.CTG (ENR+CD organoids; [11]): −0.103 log2 fold change; Dose.FC.CTG (ENR+CD organoids; [13]): −0.236 log2 fold change; Dose.FC.LYZ.NS [2, 7]: 0.149 log2 fold change; Z.LYZ.NS [2, 8]: 1.295; Dose.FC.LYZ.NS [2, 9]: −0.029 log2 fold change; Z.LYZ.NS [2, 10]: −0.256; Dose.FC.LYZ.NS [2, 11]: −0.001 log2 fold change; Z.LYZ.NS [2, 12]: −0.009; Dose.FC.LYZ.NS [2, 13]: −0.061 log2 fold change; Z.LYZ.NS [2, 14]: −0.534
